In patent US20260347373A1, “HETEROCYCLIC COMPOUNDS, COMPOSITIONS THEREOF, AND METHODS OF TREATMENT THEREWITH” (BeOne Medicines I GmbH, priority 2023, published 2026) one finds IC50 data, which are given here for 18 molecules.

Like-named read-outs stand apart in the source and are kept apart here. Some results are limits rather than exact numbers.

In one assay the target is WT KRAS (Homo sapiens, UniProt P01116). The assay is described as follows: KRAS WT Probe Displacement Assay (TR-FRET, GDP-loaded). Format: binding. An excerpt:
(§1) The synthetic routes of probe 1 and 2, which have been disclosed in PCT/CN2022/070676, are hereby incorporated herein.
(Time-resolved FRET reads energy transfer from a long-lived donor to a nearby acceptor.)

The target in another assay is KRAS G12D (Homo sapiens, UniProt P01116, G12D). In words: KRAS G12D Probe Displacement Assay (TR-FRET, GDP-loaded). The format is binding.
KRAS G12D, sequence (P01116 1-188 isoform P01116-2 G12D): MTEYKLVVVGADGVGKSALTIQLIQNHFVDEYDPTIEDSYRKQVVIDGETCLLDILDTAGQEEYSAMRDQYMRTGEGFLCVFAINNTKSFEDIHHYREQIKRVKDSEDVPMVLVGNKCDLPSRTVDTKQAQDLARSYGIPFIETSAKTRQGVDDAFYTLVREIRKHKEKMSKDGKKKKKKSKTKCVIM
Description: as §1

The mark [1] stands for this setting: KRAS WT, read-out: KRAS^WT Probe Displacement Assay IC50.
The mark [2] stands for this setting: KRAS G12D, read-out: KRAS^G12D Probe Displacement Assay IC50.

WT KRAS, sequence (P01116 1-188 isoform P01116-2): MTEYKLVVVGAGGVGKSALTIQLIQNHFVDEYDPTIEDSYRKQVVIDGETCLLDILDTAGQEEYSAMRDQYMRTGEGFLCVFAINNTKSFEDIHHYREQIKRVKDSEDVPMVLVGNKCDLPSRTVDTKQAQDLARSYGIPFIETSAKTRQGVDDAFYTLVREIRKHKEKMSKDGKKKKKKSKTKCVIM

For the molecule `Cc1cc(N)cc(-c2nc3c4c(nc(OCC5(CN6CC(C)OC(C)C6)CC5(F)F)nc4c2F)N2C[C@H]4CC[C@H](N4)[C@H]2CCO3)c1C(F)(F)F` (single isomer, unassigned) [Example 24], the IC50 (in general, the concentration needed to halve the response being measured) fell in the range of 3 to 1000 nM on WT KRAS (setting [1]) and 0.3 to 3 nM on KRAS G12D (setting [2]).
As for `C[C@H](Oc1nc2c3c(nc(-c4cc(N)cc(Cl)c4C(F)(F)F)c(F)c3n1)OCC[C@@H]1[C@@H]3CC[C@H](CN21)N3)[C@@H]1CCCN1C` [Example 140, 3-chloro-5-((6aR,7S,10R)-1-fluoro-13-((S)-1-((S)-1-methylpyrrolidin-2-yl)ethoxy)-5,6,6a,7,8,9,10,11-octahydro-4-oxa-3,11a,12,14,15-pentaaza-7,10-methano-cyclohepta[4,5]cycloocta [1,2,3-de]naphthalen-2-yl)-4-(trifluoromethyl)aniline], the IC50 at WT KRAS (setting [1]) was 3 to 1000 nM; at KRAS G12D (setting [2]), < 0.3 nM.
Taken in the same sequence, the figures for `CO[C@@H]1CN2C[C@H](F)C[C@]2(COc2nc3c4c(nc(-c5cc(N)cc(Cl)c5C(F)(F)F)c(F)c4n2)OCC[C@@H]2[C@@H]4CC[C@H](CN32)N4)C1` [Example 217, 3-chloro-5-((6aR,7S,10R)-1-fluoro-13-(((2R,6S,7aS)-2-fluoro-6-methoxytetahydro-1H-pyrrolizin-7a(5H)-yl)methoxy)-5,6,6a,7,8,9,10,11-octahydro-4-oxa-3,11a,12,14,15-pentaaza-7,10-methanocyclohepta[4,5]cycloocta[1,2,3-de]naphthalen-2-yl)-4-(trifluoromethyl)aniline] were 3 to 1000 nM and < 0.3 nM.
For `[2H]C([2H])([2H])N1CCC[C@H]1[C@H](C)Oc1nc2c3c(nc(-c4cc(N)cc(C)c4C(F)(F)F)c(F)c3n1)OCC[C@@H]1[C@@H]3CC[C@H](CN21)N3` [Example 141, 3-((6aR,7S,10R)-1-fluoro-13-((S)-1-((S)-1-(methyl-d3)pyrrolidin-2-yl)ethoxy)-5,6,6a,7,8,9,10,11-octahydro-4-oxa-3,11a,12,14,15-pentaaza-7,10-methano-cyclohepta[4,5]cycloocta [1,2,3-de]naphthalen-2-yl)-5-methyl-4-(trifluoromethyl)aniline], in that order: 3 to 1000 nM and < 0.3 nM.
With `[2H]C([2H])([2H])N1C[C@H](OC)C[C@H]1[C@H](C)Oc1nc2c3c(nc(-c4cc(N)cc(C)c4C(F)(F)F)c(F)c3n1)OCC[C@@H]1[C@@H]3CC[C@H](CN21)N3` [Example 219, 3-((6aR,7S,10R)-1-fluoro-13-((S)-1-((2S,4R)-4-methoxy-1-(methyl-d3)pyrrolidin-2-yl)ethoxy)-5,6,6a,7,8,9,10,11-octahydro-4-oxa-3,11a,12,14,15-pentaaza-7,10-methanocyclohepta[4,5]cycloocta[1,2,3-de]naphthalen-2-yl)-5-methyl-4-(trifluoromethyl)aniline], the IC50 at WT KRAS (setting [1]) was 3 to 1000 nM; at KRAS G12D (setting [2]), < 0.3 nM.
Taken in the same sequence, the figures for `CN(C)CC1(COc2nc3c4c(nc(-c5cc(N)cc(Cl)c5C(F)(F)F)c(F)c4n2)OCC[C@@H]2[C@@H]4CC[C@H](CN32)N4)CC1F` (single isomer, unassigned) [Example 52] were 0.3 to 3 nM and < 0.3 nM.
Taken in the same sequence, the figures for `CN(C)C[C@@]1(COc2nc3c4c(nc(-c5cc(N)cc(Cl)c5C(F)(F)F)c(F)c4n2)OCC[C@@H]2[C@@H]4CC[C@H](CN32)N4)CC1(F)F` [Example 45, 3-chloro-5-((6aR,7S,10R)-13-(((R)-1-((dimethylamino)methyl)-2,2-difluorocyclopropyl)methoxy)-1-fluoro-5,6,6a,7,8,9,10,11-octahydro-4-oxa-3,11a,12,14,15-pentaaza-7,10-methanocyclohepta[4,5]cycloocta[1,2,3-de]naphthalen-2-yl)-4-(trifluoromethyl)aniline] were 0.3 to 3 nM and < 0.3 nM.
Taken in the same sequence, the figures for `Cc1cc(N)cc(-c2nc3c4c(nc(OCC56CCCN5CC(F)(F)C6)nc4c2F)N2C[C@H]4CC[C@H](N4)[C@H]2CCO3)c1C(F)(F)F` (stereo partly drawn) [Example 1, 3-((6aR,7S,10R)-13-((2,2-difluorotetrahydro-1H-pyrrolizin-7a(5H)-yl)methoxy)-1-fluoro-5,6,6a,7,8,9,10,11-octahydro-4-oxa-3,11a,12,14,15-pentaaza-7,10-methanocyclohepta[4,5]cycloocta[1,2,3-de]naphthalen-2-yl)-5-methyl-4-(trifluoromethyl)aniline] were 3 to 1000 nM and 0.3 to 3 nM.
As for `COC1CN(CC2(COc3nc4c5c(nc(-c6cc(N)cc(C)c6C(F)(F)F)c(F)c5n3)OCC[C@@H]3[C@@H]5CC[C@H](CN43)N5)CC2)CC1F` (single isomer, unassigned) [Example 186], the IC50 on WT KRAS (setting [1]) is 3 to 1000 nM; at KRAS G12D (setting [2]), < 0.3 nM.
Taken in the same sequence, the figures for `Cc1cc(N)cc(-c2nc3c4c(nc(OCC5(CN6CCCOCC6)CC5)nc4c2F)N2C[C@H]4CC[C@H](N4)[C@H]2CCO3)c1C(F)(F)F` [Example 103, 3-((6aR,7S,10R)-13-- ((1-((1,4-oxazepan-4-yl)methyl)cyclopropyl)methoxy)-1-fluoro-5,6,6a,7,8,9,10,11-octahydro-4-oxa-3,11a, 12,14,15-pentaaza-7,10-methanocyclohepta [4,5]cycloocta [1,2,3-de]naphthalen-2-yl)-5-methyl-4-(trifluoromethyl)aniline] were 3 to 1000 nM and < 0.3 nM.
For `Cc1cc(N)cc(-c2nc3c4c(nc(OC[C@]5(CN(C)C)CC5(F)F)nc4c2F)N2C[C@H]4CC[C@H](N4)[C@H]2CC(C)O3)c1C(F)(F)F` (single isomer, unassigned) [Example 248], in that order: 0.3 to 3 nM and < 0.3 nM.
As to `Cc1cc(N)cc(-c2nc3c4c(nc(OCC5(CN6CCC(=C(F)F)C6)CC5)nc4c2F)N2C[C@H]4CC[C@H](N4)[C@H]2CCO3)c1C(F)(F)F` [Example 149, 3-((6aR,7S,10R)-13-((1-((3-(difluoromethylene)pyrrolidin-1-yl)methyl)cyclopropyl)methoxy)-1-fluoro-5,6,6a,7,8,9,10,11-octahydro-4-oxa-3,11a,12,14,15-pentaaza-7,10-methano-cyclohepta[4,5]cycloocta [1,2,3-de]naphthalen-2-yl)-5-methyl-4-(trifluoromethyl) aniline], the IC50 at WT KRAS (KRAS^WT Probe Displacement Assay IC50, KRAS WT) was 3 to 1000 nM; at KRAS G12D (KRAS^G12D Probe Displacement Assay IC50, KRAS G12D) it was < 0.3 nM.
Take `[2H]C([2H])([2H])N1CCC(C(F)F)C(C)(C([2H])([2H])Oc2nc3c4c(nc(-c5cc(N)cc(C)c5C(F)(F)F)c(F)c4n2)OCC[C@@H]2[C@@H]4CC[C@H](CN32)N4)C1` (single isomer, unassigned) [Example 241]: the IC50 on WT KRAS (setting [1]) was 0.3 to 3 nM; at KRAS G12D (setting [2]) it was < 0.3 nM.
Taken in the same sequence, the figures for `Cc1cc(N)cc(-c2nc3c4c(nc(O[C@@H](C)[C@@H]5[C@H]6C[C@H]6CN5C)nc4c2F)N2C[C@H]4CC[C@H](N4)[C@H]2CCO3)c1C(F)(F)F` [Example 223, 3-((6aR,7S,10R)-1-fluoro-13-((S)-1-((1S,2S,5R)-3-methyl-3-azabicyclo[3.1.0]hexan-2-yl)ethoxy)-5,6,6a,7,8,9,10,11-octahydro-4-oxa-3,11a,12,14,15-pentaaza-7,10-methanocyclohepta[4,5]cycloocta[1,2,3-de]naphthalen-2-yl)-5-methyl-4-(trifluoromethyl)aniline] were 3 to 1000 nM and < 0.3 nM.
On to `Cc1cc(N)cc(-c2nc3c4c(nc(OCC5(CN6CC7(CCOCC7)C6)CC5)nc4c2F)N2C[C@H]4CC[C@H](N4)[C@H]2CCO3)c1C(F)(F)F` [Example 85, 3-((6aR,7S,10R)-13-((1-((7-oxa-2-azaspiro[3.5]nonan-2-yl)methyl)cyclopropyl)methoxy)-1-fluoro-5,6,6a, 7,8,9,10,11-octahydro-4-oxa-3,11a,12,14,15-pentaaza[7,10]methanocyclohepta [4,5]cycloocta [1,2,3-de]naphthalen-2-yl)-5-methyl-4-(trifluoromethyl)aniline], for which the results for the IC50 at WT KRAS (setting [1]) and on KRAS G12D (setting [2]) were 0.3 to 3 nM and < 0.3 nM, respectively.
Consider `Cc1cc(N)cc(-c2nc3c4c(nc(O[C@@H](C)[C@@H]5CCCN5CCF)nc4c2F)N2C[C@H]4CC[C@H](N4)[C@H]2CCO3)c1C(F)(F)F` [Example 250, 3-((6aR,7S,10R)-1-fluoro-13-((S)-1-((S)-1-(2-fluoroethyl)pyrrolidin-2-yl)ethoxy)-5,6,6a,7,8,9,10,11-octahydro-4-oxa-3,11a,12,14,15-pentaaza-7,10-methanocyclohepta[4,5]cycloocta[1,2,3-de]naphthalen-2-yl)-5-methyl-4-(trifluoromethyl)aniline], for which the figures for the IC50 at WT KRAS (setting [1]) and on KRAS G12D (setting [2]) were 3 to 1000 nM and < 0.3 nM, respectively.
Turning to `CN(C)C[C@]1(COc2nc3c4c(nc(-c5cc(N)cc(Cl)c5C(F)(F)F)c(F)c4n2)OCC[C@@H]2[C@@H]4CC[C@H](CN32)N4)CC1(F)F` [Example 44, 3-chloro-5-((6aR,7S,10R)-13-(((S)-1-((dimethylamino)methyl)-2,2-difluorocyclopropyl)methoxy)-1-fluoro-5,6,6a,7,8,9,10,11-octahydro-4-oxa-3,11a,12,14,15-pentaaza-7,10-methanocyclohepta[4,5]cycloocta [1,2,3-de]naphthalen-2-yl)-4-(trifluoromethyl)aniline], the IC50 on WT KRAS (setting [1]) is 0.3 to 3 nM; on KRAS G12D (setting [2]), < 0.3 nM.
For `Cc1cc(N)cc(-c2nc3c4c(nc(OCC5(CN6CCC7(CCOC7)C6)CC5)nc4c2F)N2C[C@H]4CC[C@H](N4)[C@H]2CCO3)c1C(F)(F)F` (stereo partly drawn) [Example 188, 3-((6aR,7S,10R)-13-((1-((2-oxa-7-azaspiro[4.4]nonan-7-yl)methyl)cyclopropyl)methoxy)-1-fluoro-5,6,6a,7,8,9,10,11-octahydro-4-oxa-3,11a,12,14,15-pentaaza[7,10]methanocyclohepta[4,5]cycloocta[1,2,3-de]naphthalen-2-yl)-5-methyl-4-(trifluoromethyl)aniline], in that order: < 0.3 nM and < 0.3 nM.
